Source: ChEMBL document CHEMBL4507273 (2021)

Key:
[1] = molecular target: Sodium-dependent noradrenaline transporter (Homo sapiens, UniProt P23975); experiment: GPCRScan assay: inhibition of NET; design: radioligand conc. used [nm] 1.3 – 5.0, parental cells stable HEK
[2] = molecular target: Tyrosine-protein kinase ABL1 (Homo sapiens) (UniProt P00519); details: Compound concentration 1000.0 nM
[3] = molecular target: Aurora kinase C (Homo sapiens) (UniProt Q9UQB9); details: Compound concentration 1000.0 nM
[4] = molecular target: Bone morphogenetic protein receptor type-2 (Homo sapiens) (UniProt Q13873); details: Compound concentration 1000.0 nM
[5] = molecular target: Serine/threonine-protein kinase BRSK1 (Homo sapiens) (UniProt Q8TDC3); details: Compound concentration 1000.0 nM
[6] = molecular target: Casein kinase I isoform gamma-2 (Homo sapiens) (UniProt P78368); details: Compound concentration 1000.0 nM
[7] = molecular target: Casein kinase II subunit alpha' (Homo sapiens) (UniProt P19784); details: Compound concentration 1000.0 nM
[8] = molecular target: Megakaryocyte-associated tyrosine-protein kinase (Homo sapiens) (UniProt P42679); details: Compound concentration 1000.0 nM
[9] = molecular target: Death-associated protein kinase 1 (Homo sapiens) (UniProt P53355); details: Compound concentration 1000.0 nM
[10] = molecular target: Discoidin domain-containing receptor 2 (Homo sapiens) (UniProt Q16832); details: Compound concentration 1000.0 nM
[11] = molecular target: Mitogen-activated protein kinase kinase kinase 12 (Homo sapiens) (UniProt Q12852); details: Compound concentration 1000.0 nM
[12] = molecular target: Ephrin type-A receptor 5 (Homo sapiens) (UniProt P54756); details: Compound concentration 1000.0 nM
[13] = molecular target: Homeodomain-interacting protein kinase 4 (Homo sapiens) (UniProt Q8NE63); details: Compound concentration 1000.0 nM
[14] = molecular target: Serine/threonine-protein kinase ICK (Homo sapiens) (UniProt Q9UPZ9); details: Compound concentration 1000.0 nM
[15] = molecular target: Interleukin-1 receptor-associated kinase 4 (Homo sapiens) (UniProt Q9NWZ3); details: Compound concentration 1000.0 nM
[16] = molecular target: Misshapen-like kinase 1 (Homo sapiens) (UniProt Q8N4C8); details: Compound concentration 1000.0 nM
[17] = molecular target: Cyclin-dependent kinase 17 (Homo sapiens) (UniProt Q00537); details: Compound concentration 1000.0 nM
[18] = molecular target: Calcium-dependent protein kinase 1 (Plasmodium falciparum) (UniProt P62344); details: Compound concentration 1000.0 nM
[19] = molecular target: Cyclin-dependent kinase 14 (Homo sapiens) (UniProt O94921); details: Compound concentration 1000.0 nM
[20] = system: Phosphatidylinositol 4,5-bisphosphate 3-kinase catalytic subunit alpha isoform (Homo sapiens), P42336 [M1043I]; details: Compound concentration 1000.0 nM
[21] = system: Phosphatidylinositol 4,5-bisphosphate 3-kinase catalytic subunit alpha isoform (Homo sapiens), P42336 [Q546K]; details: Compound concentration 1000.0 nM
[22] = molecular target: Phosphatidylinositol 4,5-bisphosphate 3-kinase catalytic subunit beta isoform (Homo sapiens) (UniProt P42338); details: Compound concentration 1000.0 nM
[23] = molecular target: Phosphatidylinositol 4,5-bisphosphate 3-kinase catalytic subunit delta isoform (Homo sapiens) (UniProt O00329); details: Compound concentration 1000.0 nM
[24] = molecular target: Serine/threonine-protein kinase N2 (Homo sapiens) (UniProt Q16513); details: Compound concentration 1000.0 nM
[25] = molecular target: T1, Protein kinase C epsilon type (Homo sapiens) (UniProt Q02156); details: Compound concentration 1000.0 nM
T1 sequence (whole entry): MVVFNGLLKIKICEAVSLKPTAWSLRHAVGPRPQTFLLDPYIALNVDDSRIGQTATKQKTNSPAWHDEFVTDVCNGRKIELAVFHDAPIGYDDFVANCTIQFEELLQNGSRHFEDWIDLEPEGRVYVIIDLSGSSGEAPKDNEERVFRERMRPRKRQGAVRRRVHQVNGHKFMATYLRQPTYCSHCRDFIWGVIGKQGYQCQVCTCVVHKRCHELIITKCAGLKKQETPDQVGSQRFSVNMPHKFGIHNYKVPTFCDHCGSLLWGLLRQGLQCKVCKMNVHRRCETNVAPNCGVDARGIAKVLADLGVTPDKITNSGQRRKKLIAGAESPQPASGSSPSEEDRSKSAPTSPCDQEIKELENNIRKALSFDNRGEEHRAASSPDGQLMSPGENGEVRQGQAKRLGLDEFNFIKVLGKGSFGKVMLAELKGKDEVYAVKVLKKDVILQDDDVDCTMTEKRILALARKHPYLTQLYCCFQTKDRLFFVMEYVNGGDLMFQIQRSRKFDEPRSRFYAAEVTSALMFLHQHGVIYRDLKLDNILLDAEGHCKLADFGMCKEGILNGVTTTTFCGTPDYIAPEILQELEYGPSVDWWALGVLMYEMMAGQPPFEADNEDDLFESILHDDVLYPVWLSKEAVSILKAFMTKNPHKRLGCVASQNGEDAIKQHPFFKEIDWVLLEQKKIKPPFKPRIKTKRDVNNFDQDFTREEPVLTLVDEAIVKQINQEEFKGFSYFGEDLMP

[26] = molecular target: Ribosomal protein S6 kinase alpha-5 (Homo sapiens) (UniProt O75582); details: Compound concentration 1000.0 nM
[27] = molecular target: Serine/threonine-protein kinase TBK1 (Homo sapiens) (UniProt Q9UHD2); details: Compound concentration 1000.0 nM
[28] = molecular target: T2, Alpha-2B adrenergic receptor (Homo sapiens) (UniProt P18089); details: Compound concentration 10.0 uM
T2 sequence (whole entry): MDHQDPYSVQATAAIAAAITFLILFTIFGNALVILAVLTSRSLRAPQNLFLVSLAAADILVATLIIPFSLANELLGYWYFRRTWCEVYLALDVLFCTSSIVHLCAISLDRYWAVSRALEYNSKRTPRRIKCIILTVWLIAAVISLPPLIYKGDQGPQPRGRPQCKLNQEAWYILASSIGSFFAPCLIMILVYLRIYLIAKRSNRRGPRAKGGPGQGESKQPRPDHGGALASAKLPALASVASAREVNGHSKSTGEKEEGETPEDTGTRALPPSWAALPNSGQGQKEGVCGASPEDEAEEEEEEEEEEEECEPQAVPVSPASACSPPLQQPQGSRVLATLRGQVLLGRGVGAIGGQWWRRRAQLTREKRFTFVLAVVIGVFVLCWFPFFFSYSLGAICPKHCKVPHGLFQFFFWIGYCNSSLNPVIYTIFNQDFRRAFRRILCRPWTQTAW

[29] = molecular target: Muscarinic acetylcholine receptor M2 (Homo sapiens) (UniProt P08172); details: Compound concentration 10.0 uM

Chain of Sodium-dependent noradrenaline transporter (P23975 whole entry): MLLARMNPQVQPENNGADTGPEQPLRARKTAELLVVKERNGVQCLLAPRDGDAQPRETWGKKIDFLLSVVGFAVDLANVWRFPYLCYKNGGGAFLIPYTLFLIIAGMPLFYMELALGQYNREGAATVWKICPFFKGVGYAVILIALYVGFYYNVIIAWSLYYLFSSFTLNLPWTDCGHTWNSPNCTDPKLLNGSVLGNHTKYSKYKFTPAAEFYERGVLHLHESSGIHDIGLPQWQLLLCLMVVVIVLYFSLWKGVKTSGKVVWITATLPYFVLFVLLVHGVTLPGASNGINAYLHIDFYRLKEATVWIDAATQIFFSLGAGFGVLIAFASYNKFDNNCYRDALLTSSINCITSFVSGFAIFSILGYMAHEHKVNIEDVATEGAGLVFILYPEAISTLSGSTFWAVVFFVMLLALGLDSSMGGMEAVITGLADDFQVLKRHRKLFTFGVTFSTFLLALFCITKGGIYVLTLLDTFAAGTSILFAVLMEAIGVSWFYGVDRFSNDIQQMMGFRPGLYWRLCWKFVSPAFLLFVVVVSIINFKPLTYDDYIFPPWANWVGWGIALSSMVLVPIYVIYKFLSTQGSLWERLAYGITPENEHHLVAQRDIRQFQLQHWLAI
Chain of Aurora kinase C (Homo sapiens) (Q9UQB9 whole entry): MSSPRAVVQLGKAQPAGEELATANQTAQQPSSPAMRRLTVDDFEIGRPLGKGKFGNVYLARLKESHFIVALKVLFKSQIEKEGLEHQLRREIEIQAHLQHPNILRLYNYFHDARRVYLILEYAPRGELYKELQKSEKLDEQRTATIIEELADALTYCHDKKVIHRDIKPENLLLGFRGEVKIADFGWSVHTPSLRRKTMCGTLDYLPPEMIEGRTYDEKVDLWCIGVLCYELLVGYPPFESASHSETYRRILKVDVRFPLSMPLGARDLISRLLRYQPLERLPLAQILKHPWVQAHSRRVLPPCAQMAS
Chain of Serine/threonine-protein kinase N2 (Homo sapiens) (Q16513 whole entry, looked up): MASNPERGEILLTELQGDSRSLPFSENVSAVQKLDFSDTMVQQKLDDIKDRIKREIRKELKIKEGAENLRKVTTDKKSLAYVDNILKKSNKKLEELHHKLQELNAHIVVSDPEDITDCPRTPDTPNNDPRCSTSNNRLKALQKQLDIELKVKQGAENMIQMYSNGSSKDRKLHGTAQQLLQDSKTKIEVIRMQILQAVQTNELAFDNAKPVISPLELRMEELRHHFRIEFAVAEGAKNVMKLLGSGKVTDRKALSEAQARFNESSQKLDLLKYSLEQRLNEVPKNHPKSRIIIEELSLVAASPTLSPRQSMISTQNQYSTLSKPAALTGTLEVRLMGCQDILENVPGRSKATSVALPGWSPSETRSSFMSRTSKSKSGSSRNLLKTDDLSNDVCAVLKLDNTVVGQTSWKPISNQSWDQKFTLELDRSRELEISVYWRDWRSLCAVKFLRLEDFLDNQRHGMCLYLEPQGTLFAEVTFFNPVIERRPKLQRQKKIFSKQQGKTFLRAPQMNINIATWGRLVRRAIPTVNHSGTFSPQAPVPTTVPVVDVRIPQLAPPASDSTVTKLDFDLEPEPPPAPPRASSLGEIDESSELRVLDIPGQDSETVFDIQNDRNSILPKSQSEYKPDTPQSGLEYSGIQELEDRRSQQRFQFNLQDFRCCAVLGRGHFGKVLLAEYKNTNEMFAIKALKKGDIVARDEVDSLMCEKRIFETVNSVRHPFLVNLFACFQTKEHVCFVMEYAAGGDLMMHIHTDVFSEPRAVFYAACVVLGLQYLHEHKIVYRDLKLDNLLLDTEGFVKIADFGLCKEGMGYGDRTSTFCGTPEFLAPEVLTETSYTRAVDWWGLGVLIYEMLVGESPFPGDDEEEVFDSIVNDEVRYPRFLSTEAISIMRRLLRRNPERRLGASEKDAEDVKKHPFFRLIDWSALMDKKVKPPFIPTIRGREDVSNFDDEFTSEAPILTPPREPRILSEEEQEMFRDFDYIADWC
Chain of Tyrosine-protein kinase ABL1 (Homo sapiens) (P00519 whole entry): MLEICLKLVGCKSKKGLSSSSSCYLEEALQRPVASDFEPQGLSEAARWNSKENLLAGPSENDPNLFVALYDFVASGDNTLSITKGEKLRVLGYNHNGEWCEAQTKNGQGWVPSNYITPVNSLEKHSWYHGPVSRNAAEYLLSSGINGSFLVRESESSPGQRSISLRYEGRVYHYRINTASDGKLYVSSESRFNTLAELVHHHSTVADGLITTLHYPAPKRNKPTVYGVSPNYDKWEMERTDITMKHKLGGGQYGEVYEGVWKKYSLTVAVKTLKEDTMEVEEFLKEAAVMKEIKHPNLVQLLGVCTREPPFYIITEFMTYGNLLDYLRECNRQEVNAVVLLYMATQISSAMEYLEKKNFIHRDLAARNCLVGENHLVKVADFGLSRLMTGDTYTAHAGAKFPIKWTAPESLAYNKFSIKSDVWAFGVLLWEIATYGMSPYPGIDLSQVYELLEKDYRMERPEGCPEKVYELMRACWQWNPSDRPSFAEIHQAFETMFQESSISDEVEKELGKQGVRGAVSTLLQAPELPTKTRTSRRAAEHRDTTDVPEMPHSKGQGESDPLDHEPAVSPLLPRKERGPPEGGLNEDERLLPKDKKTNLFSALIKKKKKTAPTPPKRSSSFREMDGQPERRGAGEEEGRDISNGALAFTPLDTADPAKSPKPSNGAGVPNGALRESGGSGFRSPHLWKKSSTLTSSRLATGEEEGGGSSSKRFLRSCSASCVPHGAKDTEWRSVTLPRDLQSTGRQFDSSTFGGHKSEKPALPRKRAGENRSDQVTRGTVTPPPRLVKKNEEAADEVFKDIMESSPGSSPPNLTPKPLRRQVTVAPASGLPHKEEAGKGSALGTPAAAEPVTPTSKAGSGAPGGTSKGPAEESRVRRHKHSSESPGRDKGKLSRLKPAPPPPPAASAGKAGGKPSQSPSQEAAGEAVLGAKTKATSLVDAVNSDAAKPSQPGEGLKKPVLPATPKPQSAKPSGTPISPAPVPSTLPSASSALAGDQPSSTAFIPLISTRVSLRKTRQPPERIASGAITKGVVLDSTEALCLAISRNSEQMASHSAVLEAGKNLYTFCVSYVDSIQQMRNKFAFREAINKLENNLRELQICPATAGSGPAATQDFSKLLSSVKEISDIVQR
Chain of Cyclin-dependent kinase 14 (Homo sapiens) (O94921 whole entry, canonical isoform): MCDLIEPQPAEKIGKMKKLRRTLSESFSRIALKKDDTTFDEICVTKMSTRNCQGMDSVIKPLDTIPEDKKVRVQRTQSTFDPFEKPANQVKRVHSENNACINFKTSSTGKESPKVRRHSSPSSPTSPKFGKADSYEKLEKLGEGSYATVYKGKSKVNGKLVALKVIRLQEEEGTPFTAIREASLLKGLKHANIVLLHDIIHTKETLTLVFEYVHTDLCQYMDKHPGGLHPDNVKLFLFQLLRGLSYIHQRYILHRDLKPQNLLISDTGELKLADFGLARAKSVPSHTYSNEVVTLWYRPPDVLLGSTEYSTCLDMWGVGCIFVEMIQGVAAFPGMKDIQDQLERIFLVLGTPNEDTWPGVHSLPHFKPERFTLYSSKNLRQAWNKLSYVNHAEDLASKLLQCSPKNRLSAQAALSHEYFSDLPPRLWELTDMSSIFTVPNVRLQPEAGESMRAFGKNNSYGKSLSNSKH
Chain of Death-associated protein kinase 1 (Homo sapiens) (P53355 whole entry, looked up, the tested form may be a part): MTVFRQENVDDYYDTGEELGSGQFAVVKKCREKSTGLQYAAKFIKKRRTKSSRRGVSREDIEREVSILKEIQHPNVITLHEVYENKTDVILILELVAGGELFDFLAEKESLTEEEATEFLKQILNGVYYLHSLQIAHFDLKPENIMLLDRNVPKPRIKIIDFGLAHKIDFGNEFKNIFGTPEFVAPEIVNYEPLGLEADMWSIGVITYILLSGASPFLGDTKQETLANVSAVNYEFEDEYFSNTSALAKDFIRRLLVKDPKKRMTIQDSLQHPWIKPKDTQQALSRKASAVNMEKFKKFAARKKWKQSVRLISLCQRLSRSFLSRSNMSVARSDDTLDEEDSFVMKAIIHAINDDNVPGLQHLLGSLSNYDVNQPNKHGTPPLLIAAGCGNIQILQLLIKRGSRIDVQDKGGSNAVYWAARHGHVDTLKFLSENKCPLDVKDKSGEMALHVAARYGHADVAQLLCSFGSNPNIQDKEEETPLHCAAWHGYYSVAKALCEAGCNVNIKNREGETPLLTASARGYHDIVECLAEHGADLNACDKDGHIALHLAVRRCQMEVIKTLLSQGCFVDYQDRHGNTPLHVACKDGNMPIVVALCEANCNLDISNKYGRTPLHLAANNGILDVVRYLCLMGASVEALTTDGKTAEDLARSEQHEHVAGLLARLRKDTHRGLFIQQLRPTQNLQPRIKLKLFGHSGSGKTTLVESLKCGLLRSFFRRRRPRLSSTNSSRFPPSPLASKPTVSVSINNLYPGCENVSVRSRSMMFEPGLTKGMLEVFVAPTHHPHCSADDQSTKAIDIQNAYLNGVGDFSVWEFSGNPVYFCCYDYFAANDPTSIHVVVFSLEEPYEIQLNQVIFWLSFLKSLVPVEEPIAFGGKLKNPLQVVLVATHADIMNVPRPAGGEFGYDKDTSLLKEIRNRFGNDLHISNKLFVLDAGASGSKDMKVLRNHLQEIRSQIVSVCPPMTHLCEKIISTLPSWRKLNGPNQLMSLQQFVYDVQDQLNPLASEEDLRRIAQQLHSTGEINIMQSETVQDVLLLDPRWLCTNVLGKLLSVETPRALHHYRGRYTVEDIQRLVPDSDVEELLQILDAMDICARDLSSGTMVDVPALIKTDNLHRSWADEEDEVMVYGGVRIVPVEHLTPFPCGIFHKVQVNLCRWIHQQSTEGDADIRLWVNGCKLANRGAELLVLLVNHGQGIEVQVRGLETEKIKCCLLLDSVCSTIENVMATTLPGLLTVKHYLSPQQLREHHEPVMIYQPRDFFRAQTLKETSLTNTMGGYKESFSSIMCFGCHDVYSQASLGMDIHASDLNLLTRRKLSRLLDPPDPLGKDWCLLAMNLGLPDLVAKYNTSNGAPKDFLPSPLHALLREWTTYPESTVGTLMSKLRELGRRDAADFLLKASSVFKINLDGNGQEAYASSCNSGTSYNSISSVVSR

Q: Which Ki ([1]; read-out: Ki) does the source give for `CNCc1ccccc1-c1csc([C@@H](C)Nc2nc(C)nc3cc(OC)c(OC)cc23)c1` [BAY-293] here?
A: 0.982 µM

Q: And the Ki ([1]; read-out: pKi (converted))?
A: 0.881 µM

Q: And the residual activity [2]?
A: 97%

Q: What about the residual activity [3] of the same compound?
A: 92%

Q: What about the residual activity [4] of the same compound?
A: 100%

Q: What about the residual activity [5] of the same compound?
A: 87%

Q: And the residual activity [6]?
A: 98%

Q: And the residual activity [7]?
A: 100%

Q: And the residual activity [8]?
A: 57%

Q: What about the residual activity [9] of the same compound?
A: 99%

Q: And the residual activity [10]?
A: 92%

Q: And the residual activity [11]?
A: 100%

Q: And the residual activity [12]?
A: 88%

Q: And the residual activity [13]?
A: 86%

Q: What about the residual activity [14] of the same compound?
A: 82%

Q: What about the residual activity [15] of the same compound?
A: 76%

Q: What about the residual activity [16] of the same compound?
A: 57%

Q: And the residual activity [17]?
A: 94%

Q: And the residual activity [18]?
A: 100%

Q: And the residual activity [19]?
A: 100%

Q: What about the residual activity [20] of the same compound?
A: 56%

Q: What about the residual activity [21] of the same compound?
A: 89%

Q: And the residual activity [22]?
A: 96%

Q: And the residual activity [23]?
A: 75%

Q: What about the residual activity [24] of the same compound?
A: 89%

Q: And the residual activity [25]?
A: 74%

Q: And the residual activity [26]?
A: 100%

Q: What about the residual activity [27] of the same compound?
A: 100%

Q: What about the inhibition [28] of the same compound?
A: 64.2%

Q: And the inhibition [29]?
A: 74.2%

Q: Which results are given for `CNCc1ccccc1-c1csc([C@H](C)Nc2nc(C)nc3cc(OC)c(OC)cc23)c1` [BAY-294]?
A: Ki ([1]; read-out: Ki): 2.08 µM; residual activity [2]: 100%; residual activity [3]: 94%; residual activity [4]: 100%; residual activity [5]: 89%; residual activity [6]: 100%; residual activity [7]: 100%; residual activity [8]: 51%; residual activity [9]: 100%; residual activity [10]: 94%; residual activity [11]: 97%; residual activity [12]: 100%; residual activity [13]: 91%; residual activity [14]: 86%; residual activity [15]: 89%; residual activity [16]: 88%; residual activity [17]: 100%; residual activity [18]: 81%; residual activity [19]: 100%; residual activity [20]: 100%; residual activity [21]: 84%; residual activity [22]: 89%; residual activity [23]: 100%; residual activity [24]: 90%; residual activity [25]: 78%; residual activity [26]: 100%; residual activity [27]: 100%; inhibition [28]: 82.9%; inhibition [29]: 65.4%
